Experiments:
[1] = Cytotoxicity against human HeLa cells after 2 hrs by Draq staining based assay; assay type: cell-based
Ebolavirus [2] = assay: Antiviral activity against Sudan virus Gulu infected in human HeLa cells preincubated with cells for 2 hrs followed by viral infection measured after 48 hrs by immunostaining based assay; assay type: functional, cell-based, Sudan ebolavirus; settings: Orthoebolavirus
Ebolavirus [3] = assay: Antiviral activity against Ebolavirus Makona infected in human HeLa cells preincubated for 2 hrs followed by viral infection measured after 15 to 20 hrs by Draq5 staining based assay; assay type: functional, cell-based, Zaire ebolavirus Makona; settings: Orthoebolavirus
Marburgvirus = assay: Antiviral activity against Marburg virus Ci67 infected in human HeLa cells preincubated for 2 hrs followed by viral infection measured after 15 to 20 hrs by Draq staining based assay; assay type: functional, cell-based, Lake Victoria marburgvirus - Ci67; settings: Orthomarburgvirus
Huh-7 = assay: Cytotoxicity against human HuH7 cells after 2 to 3 hrs by CellTiter-Glo assay; assay type: cell-based
Lassa virus = assay: Antiviral activity against Lassa virus infected in human HuH7 cells pretreated for 2 to 3 hrs followed by viral infection measured after 3 days by fluorescence assay; assay type: functional, cell-based; settings: Mammarenavirus lassaense, Huh-7
Rift Valley fever virus = assay: Antiviral activity against Rift Valley fever virus infected in human HeLa cells preincubated for 2 to 3 hrs followed by viral infection measured after 3 days by fluorescence assay; assay type: functional, cell-based

Structure (SMILES)	CC50 at 2 h [1] [µM]	EC50 (Ebolavirus [2]) [µM]	EC50 (Ebolavirus [3]) [µM]	EC50 (Marburgvirus) [µM]	CC50 (Huh-7) [µM]	EC50 (Lassa virus) [µM]	EC50 (Rift Valley fever virus) [µM]
COc1nc(N)ncc1-c1cn(COCCO)cn1	> 100	> 100	> 100	> 100	> 50	> 50	> 50
COc1nc(N)ncc1-c1cn(COCCOC(C)=O)cn1	> 100	20	44	70	–	–	–
CCC(CC)COC(=O)[C@H](C)N[P@](=O)(OCCOCn1cnc(-c2cnc(N)nc2OC)c1)Oc1ccccc1	> 100	7	29	62	> 50	> 50	> 50

— ChEMBL document CHEMBL4020744 (Bioorg Med Chem Lett, 2017)
